Measured values from paper PMC8705362, “Cytochrome P450 and P-gp Mediated Herb-Drug Interactions and Molecular Docking Studies of Garcinol” (Membranes, 2021).
Where two headings read alike, the source gives them in different places.

Legend:
CYP3A4 [1] = assay: CYP3A4 inhibition, probe substrate cocktail in rat liver microsomes (midazolam 1-hydroxylation); format: in vitro ADME; conditions: pH 7.4, probe midazolam (1-hydroxylation), rat liver microsomes 0.5 mg/mL, garcinol 0.11-30 µM
Protocol: (§1) Tacrine was used as CYP1A2 probe substrate instead of Phenacetin to avoid the possible interactions of Phenacetin with CYP2E1 probe substrate Chlorzoxazone. […] The above incubation mixture was pre-incubated for 5 min at 37 °C and the reaction was started by adding NADPH and terminated by the addition of 200 µL of ice-cold acetonitrile containing internal standard (IS). Then the mixture was vortex mixed and centrifuged at 4000 rpm for 10 min at 4 °C and supernatant was separated and analysed using LC-MS/MS.
(§2) IC50 values were determined by comparing each CYP isozyme activity in the presence of different concentrations of inhibitor (Garcinol) with the control incubations containing no inhibitor (Negative control). […]
(§3) The entire procedure is same as mentioned in section 2.3 except for various concentrations of the formulations
(§4) and extracts (0.41-100 µg/mL) and garcinol (0.11-30 µM) were used in the study.

P-gp [2] = assay: In-vivo P-gp pharmacokinetic study with digoxin; design: species or system SD rats; conditions: for Cl / Cmax / AUC(0-inf) / AUC(0-t) / half-life: SD rats, plasma; for Cmax / AUC(0-inf) / AUC(0-t) / half-life: rat, po; for Cmax: 0.5 mg/kg
Protocol: Effect of single dose garcinol on the P-gp was evaluated in-vivo, 18 rats were divided into three groups (Group I- Group III). Group I (Control group): rats were administered intragastrically with a single dose of vehicle (0.5% CMC-Na), and after 2 h of vehicle administration, digoxin (0.5 mg/kg) was given to the rats by intragastric administration. Group II: Rats received a single dose of garcinol (25 mg/kg) and digoxin (0.5 mg/kg) after 2 h. Group III: Verapamil (potent P-gp inhibitor) was administered to these rats followed by the administration of digoxin (results not shown). 0.2 mL of blood was collected at 0, 0.25, 0.5, 1, 2, 4, 6, 8, 24, and 48 h, plasma was separated immediately by centrifuging blood samples at 5000 rpm for 5 min and stored at −80 °C until analysis.
50 µL of plasma samples was crashed with ice-cold ACN containing internal standard (75 ng/mL) and vortexed gently and centrifuged at 10,000 rpm for 5 min. Supernatant was collected and submitted for LC-MS/MS analysis. LC-MS analysis was performed on LC-QTOF/MS (Agilent, 6540) and chromatographic separation was achieved on Waters X-Bridge C18 column (3.5 µm, 50 mm × 1.76 mm I.D) at 30 °C. Digoxin was analysed by a mobile phase consisting of solvent A (0.1% Formic acid in water) and solvent B (100% ACN) flow at a rate of 0.4 mL/min with a gradient program of 5 min. The program consisted of initial10 %B from 0.01 to 3.00 min, followed by 90% B from 3.01 to 4.00 min and again to 10% B from 4.01 to 5.00 min. [M+H]+ ions were identified and quantified for Digoxin and IS as 781.4369 and 515.2442, respectively. Optimized MS operating parameters were as follows: drying gas 10 L/min, gas temperature 325 °C, nebulizer at 40 psig, fragmentor voltage of 140 V and skimmer at 65 V.

CYP2C19 = CYP2C19 inhibition, probe substrate cocktail in rat liver microsomes (S-mephenytoin 4-hydroxylation); format: in vitro ADME; conditions: pH 7.4, probe S-mephenytoin (4-hydroxylation), rat liver microsomes 0.5 mg/mL, garcinol 0.11-30 µM
Protocol: as §1, §2, §3, §4

CYP2B6 [3] = assay: CYP2B6 inhibition, probe substrate cocktail in rat liver microsomes (bupropion hydroxylation); format: in vitro ADME; conditions: pH 7.4, probe bupropion (hydroxylation)
Protocol: as §1, §2, §3, §4

CYP isoforms = assay: Time-dependent inhibition, IC50 shift assay in rat liver microsomes; format: in vitro ADME; conditions: 30 min pre-incubation with and without NADPH, all tested CYP isoforms
Protocol: Garcinol was pre-incubated with rat liver microsomes to determine the time-dependent inhibition potential of garcinol on various CYP isoforms individually. After 30 min of incubation with and without NADPH separately, metabolites of each CYP probe substrates were quantified using LC-MS/MS. IC50 values with and without NADPH pre-incubation were calculated using graph-pad prism and change in IC50 fold was calculated to evaluate the potential of garcinol to inhibit the CYP enzymes irreversibly. If the curve shifts to lower IC50 value after the pre- incubation in presence of NADPH, it is said to be a time-dependent inhibition. Concentrations of the test compound and other procedure were same as reversible inhibition study mentioned under Section 2.3.

CYP2D6 = CYP2D6 inhibition, probe substrate cocktail in rat liver microsomes (dextromethorphan O-demethylation); format: in vitro ADME; conditions: pH 7.4, probe dextromethorphan (O-demethylation), rat liver microsomes 0.5 mg/mL, garcinol 0.11-30 µM
Protocol: as §1, §2, §3, §4

CYP2C8 = CYP2C8 inhibition, probe substrate cocktail in rat liver microsomes (paclitaxel 6α-hydroxylation); format: in vitro ADME; conditions: for Inhibition of CYP2C8 (in words): rat liver microsomes, garcinol up to 30 µM
Protocol: as §1, §2, §3, §4

CYP2C9 = CYP2C9 inhibition, probe substrate cocktail in rat liver microsomes (diclofenac 4-hydroxylation); format: in vitro ADME; conditions: pH 7.4, probe diclofenac (4-hydroxylation), rat liver microsomes 0.5 mg/mL, garcinol 0.11-30 µM
Protocol: as §1, §2, §3, §4

P-gp [4] = assay: Western blotting of P-gp expression in rat brain and intestine; format: in vivo, rats; conditions: garcinol 25 mg/kg intragastric once a day for 10 days, normalized to β-actin, p < 0.05
Protocol: For Western blot analysis, twelve rats were divided into two groups. […] On the 10th day, all the rats were sacrificed under CO2 euthanasia. Brain and intestine were isolated immediately and stored at −80 °C until use. 10 mg of intestinal and brain samples were lysed using ice-cold radio immunoprecipitation assay lysis buffer containing 0.02 mM phenylmethane sulfonyl fluoride for 30 min and ultrasonicated for 60 s at 20-s intervals in an ice bath. These samples were transferred to centrifugation tubes and centrifuged for 10 min at 8000 g by maintaining temperature at 4 °C. Supernatants were estimated for protein concentration using BCA protein assay kit by following the manufacturer’s instructions. Protein denaturation was performed by reconstituting the supernatant in lammelle buffer and boiled for 5 mins at 97 °C. The denatured samples were later separated on 10% SDS-polyacrylamide gel electrophoresis and then transferred onto a nitrocellulose membrane. The membrane was then blocked with 3% bovine serum albumin in Tris-buffered saline-Tween 20 (TBS-T) for 1 hr at 37 °C. These immunoblots were probed with primary monoclonal antibody P-gp (1:1000) or β-actin (1:1000) overnight at 4 °C. […] The band intensity of P-gp protein was normalized to that of β-actin detected using Azure biosystems.

CYP1A2 = molecular target: T1, CYP1A2 (Rattus norvegicus, UniProt P04799); assay: CYP1A2 inhibition, probe substrate cocktail in rat liver microsomes (tacrine 1-hydroxylation)
T1 sequence (P04799 1-513): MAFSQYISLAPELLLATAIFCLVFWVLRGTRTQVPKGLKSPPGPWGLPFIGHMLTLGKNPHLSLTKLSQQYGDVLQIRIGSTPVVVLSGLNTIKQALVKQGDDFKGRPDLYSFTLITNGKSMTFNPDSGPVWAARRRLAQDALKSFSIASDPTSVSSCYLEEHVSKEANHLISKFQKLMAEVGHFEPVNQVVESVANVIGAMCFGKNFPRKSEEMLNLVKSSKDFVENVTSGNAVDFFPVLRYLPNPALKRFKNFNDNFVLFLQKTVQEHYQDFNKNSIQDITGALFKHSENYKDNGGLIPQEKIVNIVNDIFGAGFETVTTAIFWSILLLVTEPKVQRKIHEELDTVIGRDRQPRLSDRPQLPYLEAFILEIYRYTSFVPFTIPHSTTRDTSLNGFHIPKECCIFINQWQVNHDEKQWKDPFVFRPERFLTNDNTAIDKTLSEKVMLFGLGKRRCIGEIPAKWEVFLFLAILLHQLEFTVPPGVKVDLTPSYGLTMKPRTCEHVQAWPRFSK
Protocol: as §1, §2, §3, §4

CYP2E1 = CYP2E1 (Rattus norvegicus, UniProt P05182); assay: CYP2E1 inhibition, probe substrate cocktail in rat liver microsomes (chlorzoxazone 6-hydroxylation)
CYP2E1, sequence (P05182 whole entry): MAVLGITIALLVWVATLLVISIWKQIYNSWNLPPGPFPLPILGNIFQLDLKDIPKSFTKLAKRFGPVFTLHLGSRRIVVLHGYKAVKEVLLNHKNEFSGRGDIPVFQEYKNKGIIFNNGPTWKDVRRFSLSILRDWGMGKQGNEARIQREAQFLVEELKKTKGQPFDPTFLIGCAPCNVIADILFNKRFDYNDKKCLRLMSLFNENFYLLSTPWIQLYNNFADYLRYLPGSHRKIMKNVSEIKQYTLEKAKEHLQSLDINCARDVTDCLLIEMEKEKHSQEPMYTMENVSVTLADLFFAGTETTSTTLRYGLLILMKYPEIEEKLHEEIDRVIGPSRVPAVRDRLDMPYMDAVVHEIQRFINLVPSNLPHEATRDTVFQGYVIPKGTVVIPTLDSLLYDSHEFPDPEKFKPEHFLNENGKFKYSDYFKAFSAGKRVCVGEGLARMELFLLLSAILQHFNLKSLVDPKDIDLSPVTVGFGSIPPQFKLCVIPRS
Protocol: as §1, §2, §3, §4

CYP3A4 [5] = conditions: rats, midazolam 10 mg/kg in probe mixture on day 8, with garcinol 25 mg/kg oral for 7 days, plasma; second block of Table 3
CYP3A4 [6] = assay: in vivo; conditions: Sprague-Dawley, rat, plasma, po, 10 mg/kg
CYP2B6 [7] = assay: In-vivo CYP inhibition study, pharmacokinetics of probe bupropion and hydroxy bupropion; conditions: plasma
[8] = digoxin 0.5 mg/kg 2 h after single dose garcinol 25 mg/kg (group DGX + Garcinol)
[9] = Sprague-Dawley, digoxin 0.5 mg/kg intragastric 2 h after vehicle (group DGX)
[10] = rats, bupropion 10 mg/kg in probe mixture on day 8, with garcinol 25 mg/kg oral for 7 days
[11] = Sprague-Dawley, rat, po, 10 mg/kg

## C=C(C)[C@@H](CC=C(C)C)C[C@@]12C[C@@H](CC=C(C)C)C(C)(C)[C@@](CC=C(C)C)(C(=O)C(C(=O)c3ccc(O)c(O)c3)=C1O)C2=O [Garcinol]
CYP3A4 [1]
  IC50: 5.1 µM
P-gp [2]; rats, single dose garcinol 25 mg/kg, digoxin as P-gp substrate
  Effect on P-gp function in vivo (in words): not an inhibitor of P-gp
CYP2C19
  IC50: 16.4 µM
CYP2B6 [3]
  IC50: 2.1 µM
CYP isoforms
  Shift in IC50 (time dependent inhibition): no significant shift
CYP isoforms; listed as garcinol
  Shift in IC50 (time dependent inhibition): did not show shift
CYP2D6
  IC50: 9.5 µM
CYP2C8; pH 7.4, probe paclitaxel (6α-hydroxylation), rat liver microsomes 0.5 mg/mL, substrate paclitaxel, garcinol 0.11-30 µM
  IC50: > 30 µM
CYP2C8
  Inhibition of CYP2C8 (in words): no apparent inhibition
CYP2C8; listed as garcinol
  Inhibition of CYP2C8 (in words): negligibly inhibited
CYP2C9
  IC50: 8 µM
P-gp [4]; rat brain tissue
  P-gp expression increase vs control group: 1.62 fold
P-gp [4]; rat intestinal tissue
  P-gp expression increase vs control group: 1.07 fold
CYP1A2
  IC50: 7.6 µM
CYP2E1
  IC50: 19 µM

## OCc1ncc2n1-c1ccc(Cl)cc1C(c1ccccc1F)=NC2 [hydroxy midazolam, 1-hydroxy midazolam]
CYP3A4 [5]
  AUClast: 737.45 ± 66.95 ng·h/mL
  Cmax: 482.85 ± 14.34 ng/mL
  Tmax: 0.25 ± 1.92 h
  t1/2: 2.15 ± 0.36 h

## Cc1ncc2n1-c1ccc(Cl)cc1C(c1ccccc1F)=NC2 [midazolam]
CYP3A4 [6]
  AUC(0-inf): 1140 ± 77.4 ng·h/mL
  AUC(0-t): 1240 ± 18.6 ng·h/mL
  Cmax: 829 ± 15.7 ng/mL
  Tmax: 0.5 ± 1.23 h
  half-life: 3.12 ± 0.88 h

## C[C@H]1O[C@@H](O[C@H]2[C@@H](O)C[C@H](O[C@H]3[C@@H](O)C[C@H](O[C@H]4CC[C@@]5(C)[C@H](CC[C@@H]6[C@@H]5C[C@@H](O)[C@]5(C)[C@@H](C7=CC(=O)OC7)CC[C@]65O)C4)O[C@@H]3C)O[C@@H]2C)C[C@H](O)[C@@H]1O [DGX, digoxin]
P-gp [2]; [8]
  Cl: 24.5793 ± 1.422 mL/min/kg
  AUC(0-inf): 172 ± 12.6 ng·h/mL
  AUC(0-t): 151.4 ± 0.58 ng·h/mL
  half-life: 7.32 ± 1.75 h
P-gp [2]; digoxin 0.5 mg/kg intragastric 2 h after vehicle (group DGX)
  Cl: 16.401 ± 0.9478 mL/min/kg
P-gp [2]; Sprague-Dawley, digoxin 0.5 mg/kg 2 h after single dose garcinol 25 mg/kg (group DGX + Garcinol)
  Cmax: 16.8 ± 4.22 ng/mL
P-gp [2]; [9]
  Cmax: 26.1 ± 5.23 ng/mL
  AUC(0-inf): 254 ± 19.2 ng·h/mL
  AUC(0-t): 172 ± 12.3 ng·h/mL
  half-life: 15.1 ± 0.35 h

## C[C@H]1NC(C)(C)CO[C@]1(O)c1cccc(Cl)c1 [Hydroxy Bupropion, hydroxybupropion]
CYP2B6 [7]; [10]
  AUC0-∞: 6200.97 ± 106.97 ng·h/mL
  AUClast: 6057.86 ± 101.41 ng·h/mL
  Cmax: 632.02 ± 30.55 ng/mL
  Tmax: 1 ± 1.93 h
  t1/2: 10.23 ± 0.04 h

## CC(NC(C)(C)C)C(=O)c1cccc(Cl)c1 (stereo not shown) [Bupropion, bupropion]
CYP2B6 [7]; [11]
  AUC(0-inf): 48800 ng·h/mL
  AUC(0-t): 48200 ng·h/mL
  Cmax: 8100 ± 121 ng/mL
  Tmax: 2.5 ± 3.52 h
